This is an account of results in PMC10082729, “First study on in vitro antiviral and virucidal effects of flavonoids against feline infectious peritonitis virus at the early stage of infection” (Veterinary World, 2023).

Series [1] has as its system SARS-CoV-2. The note with it: in vitro; cited from earlier work.
Series [2] deals with Marek’s disease virus. On the set-up: method as in PMID 33008383. As to conditions: at 20 µg/mL; cited from earlier work.
A short description of series [3]: in vitro. The note with it: cat, CC50.
Series [4] deals with African swine fever virus. As to conditions: in vitro, at 10 µg/mL; cited from earlier work.
Series [5] has as its system CRFK cells.
The subject of series [6] is Duck hepatitis A virus. On the set-up: method as in PMID 27927057. The note with it: in vitro, at 20 µg/mL; cited from earlier work.
Series [7] deals with Influenza A virus. As to conditions: in vitro; cited from earlier work.
The test system of series [8] is Respiratory syncytial virus. As to conditions: cited from earlier work.
Series [9] has as its system SARS-CoV-2 RdRp. As to conditions: in vitro; cited from earlier work.
Series [10] relates to FIPV. The series is described as follows: Post-viral entry assay, FIPV-infected cells by IPMA. As to conditions: Alphacoronavirus 1, CRFK.

Where two headings read alike, the source gives them in different places.

As a reminder, the EC50 is the concentration needed to bring the measured effect to its halfway point. Take `O=C(O)[C@H]1O[C@@H](Oc2cc3oc(-c4ccccc4)cc(=O)c3c(O)c2O)[C@H](O)[C@@H](O)[C@@H]1O` [Baicalin]: the 50% effective concentration (EC50) in series [1] was 8 to 9 µM. In addition, in [2], the virucidal effect result is “Virucidal effect”. The CC50 at 24 h in series [3] was greater than 200 µM.
Regarding `COc1ccc(-c2cc(=O)c3c(O)cc(O[C@@H]4O[C@H](CO[C@@H]5O[C@@H](C)[C@H](O)[C@@H](O)[C@H]5O)[C@@H](O)[C@H](O)[C@H]4O)cc3o2)cc1O` [Diosmin], the inhibition result in series [4] is “African swine fever virus (in vitro: 40% inhibition at 10 µg/mL)”. The molecule also gave a CC50 at 24 h in series [3] greater than 200 µM.
`COc1ccc(-c2cc(=O)c3c(O)cc(O[C@@H]4O[C@H](CO[C@@H]5O[C@@H](C)[C@H](O)[C@@H](O)[C@H]5O)[C@@H](O)[C@H](O)[C@H]4O)cc3o2)cc1` [Linarin] came in with a CC50 in series [5] greater than 200 µM. In addition, the inhibition result in series [6] is listed as “Duck hepatitis A virus (in vitro: 69.3% inhibition at 20 µg/mL)”.
The term IC50 denotes the midpoint of a concentration-inhibition curve. A word on the EC90: it is the concentration needed for an effect of 90%. Low values mean greater potency, high ones weaker potency. In series [5] (cat, 24 h), `O=c1cc(-c2ccc(O)c(O)c2)oc2cc(O)cc(O)c12` [Luteolin] had a CC10 of 136.80 ± 2.37 µM and a CC50 of 248 ± 3.4 µM. In addition, in series [7], the EC50 is 6.89 to 7.15 µM. Besides, the “antiviral activity (in vitro concentration)” value in [8] is 2.08 to 24.71 µM. In addition, the IC50 in [9] is 4.6 µM. Further, the CC50 at 24 h in series [3] is greater than 200 µM. In addition, in series [10], the midpoint of the response, the EC50, lay at 36.28 ± 0.03 µM and the 90% effect level (EC90) was put at 66 ± 1.82 µM.
